Measurements taken from the supplement of paper PMC10307832.

Compound: Cc1nc(NC(=O)N2CCC[C@H]2C(N)=O)sc1-c1ccnc(C(C)(C)C(F)(F)F)c1 [Alpelisib]
Experiment: relative viability (nuclei count vs DMSO), 5 days (fraction); higher = more cells survive
In short: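 On vehicle-anchored 1536-well plates, lung cancer cell lines held overnight at 37 °C were pinned with five library-drug doses (not always all listed) spaced by √10. With no medium change over 5 days, they were then fixed, permeabilised and Hoechst-stained in one step and imaged at 4×. MetaXpress counted nuclei, and viability is the median across plates of treated-well over vehicle-well nuclei. Acceptance needed control CV below 25% and at least one doubling.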

Cell Line | relative viability (0.04 µM) | relative viability (0.1265 µM) | relative viability (0.4 µM) | relative viability (1.265 µM) | relative viability (2 µM, anchor plate) | relative viability (4 µM)
NCI-H661 | 0.973 | 1.02 | 1.01 | 0.924 | 0.719 | 0.909
NCI-H727 | 0.904 | 0.894 | 0.893 | 0.789 | 0.586 | 0.565
NCI-H838 | 0.863 | 0.921 | 0.933 | 0.706 | 1.03 | 0.689
NCI-H1299 | 1.03 | 1.04 | 1.07 | 0.988 | 1.04 | 0.945
NCI-H1355 | 0.944 | 0.96 | 1 | 0.876 | 0.855 | 0.867
NCI-H1395 | 0.97 | 0.758 | 1 | 0.73 | 1.14 | 0.785
NCI-H1437 | 1 | 0.948 | 1.06 | 0.864 | 0.965 | 0.89
NCI-H1563 | 0.942 | 0.971 | 0.948 | 0.768 | 0.966 | 0.84
NCI-H1623 | 0.853 | 0.893 | 1.07 | 0.629 | – | 0.631
NCI-H1648 | 0.712 | 0.986 | 0.778 | 0.576 | – | 0.257
NCI-H1650 | 0.935 | 0.801 | 1.06 | 0.814 | – | 0.815
NCI-H1651 | 0.891 | 1.02 | 1.01 | 0.844 | 0.973 | 0.841
NCI-H1666 | 0.997 | 0.98 | 1.13 | 0.84 | 0.977 | 0.8
NCI-H1703 | 0.89 | 0.642 | 0.654 | 0.465 | 0.348 | 0.462
NCI-H1734 | 0.917 | 0.857 | 1 | 0.644 | 0.674 | 0.508
NCI-H1755 | 0.989 | 1.01 | 0.986 | 0.876 | 0.942 | 0.853
NCI-H1792 | 0.89 | 0.724 | 0.819 | 0.636 | 0.728 | 0.383
NCI-H1793 | 0.851 | 0.89 | 0.919 | 0.731 | 0.792 | 0.626
NCI-H1915 | 1.01 | 0.998 | 0.976 | 0.948 | 1.06 | 0.893
NCI-H1944 | 0.94 | 1.13 | 0.915 | 0.79 | 0.842 | 0.447

Cell Line | relative viability (0.04 µM) | relative viability (0.1265 µM) | relative viability (0.4 µM) | relative viability (1.265 µM) | relative viability (2 µM, anchor plate) | relative viability (4 µM)
NCI-H1975 | 0.918 | 0.968 | 0.984 | 0.664 | 0.679 | 0.561
NCI-H1993 | 0.862 | 0.86 | 0.961 | 0.698 | 0.707 | 0.609
NCI-H2009 | 0.974 | 1.05 | 1.19 | 1.01 | 1.13 | 0.903
NCI-H2023 | 0.876 | 0.928 | 0.93 | 0.649 | 0.6 | 0.5
NCI-H2085 | 0.988 | 0.943 | 1.01 | 0.93 | 0.984 | 0.889
NCI-H2087 | 1.21 | 1.02 | 1.08 | 0.868 | 1 | 0.85
NCI-H2126 | 1.02 | 1.01 | 0.936 | 0.791 | 0.746 | 0.758
NCI-H2170 | 0.946 | 0.868 | 1.07 | 0.769 | 0.825 | 0.621
NCI-H2228 | 0.947 | 0.881 | 1.04 | 0.686 | 0.742 | 0.495
NCI-H2342 | 0.927 | 1.05 | 0.926 | 0.79 | – | 0.675
NCI-H2347 | 1.07 | 0.97 | 1.12 | 0.949 | 0.992 | 0.864
NCI-H2405 | 1.02 | 0.965 | 0.973 | 0.824 | 0.749 | 0.703
NCI-H3122 | 0.981 | 1.02 | 1.02 | 0.968 | 0.759 | 0.744
PC-3 [JPC-3] | 1.1 | 1.03 | 1.13 | 0.943 | 0.999 | 1.01
PC-14 | 1.01 | 1 | 1.03 | 0.89 | 0.908 | 0.973
RERF-LC-KJ | 0.94 | 0.914 | 1.01 | 0.824 | 0.844 | 0.87
SK-LU-1 | 1.07 | 0.977 | 1.03 | 0.855 | 0.922 | 0.812
SK-MES-1 | 0.975 | 0.998 | 1.09 | 0.894 | 0.896 | 0.757
SW 900 | 0.944 | 0.7 | 1 | 0.789 | – | 0.651
SW 1573 | 0.98 | 0.916 | 0.94 | 0.704 | 0.733 | 0.649
